Experimental findings from ChEMBL document CHEMBL1159341, “Bistratamides E-J, modified cyclic hexapeptides from the Philippines ascidian Lissoclinum bistratum” (J Nat Prod, 2003) are described below.

In brackets after ≈: the same amount, converted by molar mass.

What is called IC50 is the concentration at which inhibition is half-maximal. High values mean a need for much substance, low ones inhibition by little substance.

In this experiment the test system is HCT-116. In words: Cytotoxicity against human HCT116 cells. It is filed as functional, cell-based.

In turn, `CC(C)[C@@H]1NC(=O)c2csc(n2)[C@H](C(C)C)NC(=O)c2csc(n2)[C@H](C(C)C)NC(=O)[C@H]2N=C1O[C@@H]2C` [BISTRATAMIDE E] gave an IC50 of 7.9 µg/mL (≈ 14.4 µM). In the case of `CC(C)[C@@H]1NC(=O)[C@H]2N=C(O[C@@H]2C)[C@H](C(C)C)NC(=O)c2csc(n2)[C@H](C(C)C)NC(=O)[C@@H]2COC1=N2` [BISTRATAMIDE F], inhibition was half-maximal at 28 µg/mL (≈ 52.6 µM) (IC50).

Consider `Cc1oc2nc1C(=O)N[C@@H](C(C)C)c1nc(co1)C(=O)N[C@@H](C(C)C)c1nc(cs1)C(=O)N[C@H]2C(C)C` [BISTRATAMIDE G], for which half-maximal inhibition (IC50) was put at 5 µg/mL (≈ 9.46 µM).

For the compound `Cc1oc2nc1C(=O)N[C@@H](C(C)C)c1nc(cs1)C(=O)N[C@@H](C(C)C)c1nc(cs1)C(=O)N[C@H]2C(C)C` [BISTRATAMIDE H], it took 1.7 µg/mL (≈ 3.12 µM) to reach half-maximal inhibition (IC50). With `CC(C)[C@@H]1NC(=O)c2csc(n2)[C@H](C(C)C)NC(=O)c2coc(n2)[C@H](C(C)C)NC(=O)[C@H]([C@@H](C)O)NC1=O` [BISTRATAMIDE I] the figure was 9 µg/mL (≈ 16.4 µM). Take `CC(C)[C@@H]1NC(=O)c2csc(n2)[C@H](C(C)C)NC(=O)c2csc(n2)[C@H](C(C)C)NC(=O)[C@H]([C@@H](C)O)NC1=O` [BISTRATAMIDE J]: the half-inhibitory concentration (IC50) stood at 1 µg/mL (≈ 1.77 µM).
